# Values of other authors in patent publication US20250188060A1, “ALPHA1A-ADRENERGIC RECEPTOR AGONISTS AND METHODS OF USE” (CuraSen Therapeutics, Inc., priority 2022, published 2025).
# Structures can show the parent of a compound that is named as a salt. Where two headings read alike, the source gives them in different places.
# Columns and labels:
# α1A-adrenergic receptor [1] = biological target: T1, α1A-adrenergic receptor (Homo sapiens, UniProt P35348); settings: as compared to noradrenaline; InsPs accumulation assay; Blue et al., Table 1; cited from earlier work
# T1 sequence (P35348 1-466): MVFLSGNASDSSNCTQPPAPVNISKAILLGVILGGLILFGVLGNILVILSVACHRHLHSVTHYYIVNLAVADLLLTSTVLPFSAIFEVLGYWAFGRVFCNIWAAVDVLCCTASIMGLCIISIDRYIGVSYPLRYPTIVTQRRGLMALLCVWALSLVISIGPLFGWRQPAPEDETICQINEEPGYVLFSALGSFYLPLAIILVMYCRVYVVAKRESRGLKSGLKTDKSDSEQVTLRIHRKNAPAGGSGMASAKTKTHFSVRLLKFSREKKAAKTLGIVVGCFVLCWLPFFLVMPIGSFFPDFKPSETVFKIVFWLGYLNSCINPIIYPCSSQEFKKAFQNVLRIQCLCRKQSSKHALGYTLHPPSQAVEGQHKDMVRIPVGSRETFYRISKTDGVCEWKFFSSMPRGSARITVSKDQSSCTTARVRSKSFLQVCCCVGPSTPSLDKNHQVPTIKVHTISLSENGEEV
# α1A-adrenergic receptor [2] = biological target: T1, α1A-adrenergic receptor; settings: as compared to noradrenaline; FLIPR assay; Blue et al., Table 1; cited from earlier work
Structure (SMILES),intrinsic activity (α1A-adrenergic receptor [1]),intrinsic activity (α1A-adrenergic receptor [2])
"Cc1c(OCC2=NCCN2)ccc(Cl)c1NS(C)(=O)=O [RO 115-1240 (dabuzalgron) HCl salt, dabuzalgron]",0.27,0.51
"Cc1c(OCC2=NCCN2)ccc(Cl)c1NS(C)(=O)=O [RO 115-1240 (dabuzalgron) free base, dabuzalgron]",0.31,–
